This experiment has as its system NHACs. The experiment in a line: calcium flux assay. The format is cell-based, human. Particulars: for Emax: read-out: (A) % Efficacy. Here is the method: NHACs were plated in 1536 Greiner plate at 2000 cells/well in 4 ul volume. 24 hours later, 4 ul of Calcium 5 dye solution (Hank's Balanced Salt/HEPES buffer containing 5 mM of Probenecid) was then added and incubated for 1 hour at room temperature. Fluorescence readings at excitation wavelength of 470-495 nm and emission wavelength of 515-575 nm were done using FLIPR high-throughput screening system (Molecular Devices, Sunnyvale, CA). The test compound was then added to each well at the indicated dose. Signal was measured prior compound dispense and after using a first interval of 1 second for 60 reads and second interval of 3 second for 20 reads. Data was analyzed using Molecular Devices ScreenWorks® Software.
On the technique in general: A change in cytosolic calcium serves as a functional read-out for many receptors and channels.

Like-named read-outs stand apart in the source and are kept apart here.

The results in this text go back to patent US12209096B2, “Compounds and compositions for inducing chondrogenesis” (NOVARTIS AG, priority 2017, dated 2025).

As a reminder, the EC50 is the concentration at which the effect is half-maximal.

Take `O=C(Nc1cnc(Cl)c(Cl)c1)[C@@H]1[C@@H]2O[C@@H]([C@H]3C[C@H]32)[C@@H]1c1ccnc(F)c1F` [Example 32, (1S,2S,4R,5R,6S,7S)—N-(5,6-dichloropyridin-3-yl)-7-(2,3-difluoropyridin-4-yl)-8-oxatricyclo[3.2.1.0^2,4]octane-6-carboxamide]: under “Homo sapiens”, the half-maximal effective concentration (EC50) turned out to be 13 µM and the Emax worked out at 143%.
The corresponding values for `Cc1cc([C@H]2[C@H]3O[C@H](C[C@H]3F)[C@H]2C(=O)Nc2cccc(C(F)(F)F)c2)ccn1` [Example 15, (1R,2S,3S,4R,5R)-5-fluoro-3-(2-methylpyridin-4-yl)-N-[3-(trifluoromethyl)phenyl]-7-oxabicyclo[2.2.1]heptane-2-carboxamide] are above 50 µM and 0%.
Take `O=C(Nc1cccc(C(F)(F)F)c1)[C@@H]1[C@@H](c2ccncc2)[C@H]2O[C@@H]1C[C@@H]2O` [Example 88, (1R,2R,3S,4R,5S)-5-hydroxy-3-(pyridin-4-yl)-N-(3-(trifluoromethyl)phenyl)-7-oxabicyclo[2.2.1]heptane-2-carboxamide]: where the note is “Homo sapiens”, the EC50 was above 50 µM and the Emax amounted to 27%.
As for `O=C(Nc1ccc(Cl)c(Cl)c1)[C@H]1[C@@H](c2cnc(F)nc2)[C@H]2O[C@@H]1C[C@@H]2O` [Example 61, (1R,2S,3S,4R,5S)—N-(3,4-dichlorophenyl)-3-(2-fluoropyrimidin-5-yl)-5-hydroxy-7-oxabicyclo[2.2.1]heptane-2-carboxamide], for the setting “Homo sapiens”, the concentration for a half-maximal effect (EC50) was above 50 µM and the Emax turned out to be 24%.
As to `O=C(Nc1cccc(C(F)(F)F)c1)[C@H]1[C@@H]2O[C@@H](C[C@H]2O)[C@@H]1c1ccncc1` [Example 89, (1S,2R,3S,4S,6R)-6-hydroxy-3-(pyridin-4-yl)-N-(3-(trifluoromethyl)phenyl)-7-oxabicyclo[2.2.1]heptane-2-carboxamide], for the setting “Homo sapiens”, the concentration for a half-maximal effect (EC50) is above 50 µM and the Emax worked out at 0%.
On to `Cc1cc([C@H]2[C@H]3O[C@H](C[C@@H]3O)[C@@H]2C(=O)Nc2cc(Cl)c(Cl)cn2)ccn1` [Example 80, (1R,2R,3S,4R,5S)—N-(4,5-dichloropyridin-2-yl)-5-hydroxy-3-(2-methylpyridin-4-yl)-7-oxabicyclo[2.2.1]heptane-2-carboxamide], for which, for the setting “Homo sapiens”, the EC50 is above 50 µM and the Emax is 32%.
For the molecule `CN[C@@H]1C[C@H]2O[C@@H]1[C@H](c1ccnc(F)c1)[C@H]2C(=O)Nc1cnc(Cl)c(Cl)c1` [Example 174, (1R,2R,3S,4R,5R)—N-(5,6-dichloropyridin-3-yl)-3-(2-fluoropyridin-4-yl)-5-(methylamino)-7-oxabicyclo[2.2.1]heptane-2-carboxamide], where the note is “Homo sapiens”, the EC50 is above 50 µM and the Emax was 37%.
As for `Cc1cc([C@H]2[C@H]3O[C@H](C[C@@H]3O)[C@@H]2C(=O)Nc2cnc(C)c(Cl)c2)ccn1` [Example 81, (1R,2R,3S,4R,5S)—N-(5-chloro-6-methylpyridin-3-yl)-5-hydroxy-3-(2-methylpyridin-4-yl)-7-oxabicyclo[2.2.1]heptane-2-carboxamide], where the note is “Homo sapiens”, the 50% effective concentration (EC50) is 2.7 µM and the Emax turned out to be 34%.
Turning to `O=C(Nc1ccc(Cl)c(Cl)c1)[C@@H]1[C@@H]2O[C@@H]([C@H]3C[C@H]32)[C@@H]1c1ccnc(F)c1` [Example 25, (1S,2S,4R,5R,6S,7S)-N-(3,4-dichlorophenyl)-7-(2-fluoropyridin-4-yl)-8-oxatricyclo[3.2.1.0^2,4]octane-6-carboxamide], under “Homo sapiens”, the EC50 amounted to 17 µM and the Emax amounted to 52%.
For the molecule `O=C(Nc1ccc(Cl)c(Cl)c1)[C@H]1[C@@H]2O[C@@H]([C@H]3C[C@H]32)[C@@H]1c1ccnc(F)c1F` (racemic) [Example 122, rac-(1S,2S,4R,5R,6R,7S)—N-(3,4-dichlorophenyl)-7-(2,3-difluoropyridin-4-yl)-8-oxatricyclo[3.2.1.0^2,4]octane-6-carboxamide], where the note is “Homo sapiens”, the 50% effective concentration (EC50) was found to be 5 µM and the Emax was determined as 32%.
Take `Cc1cc([C@H]2[C@H]3O[C@H](C[C@H]3F)[C@@H]2C(=O)Nc2ccc(OC(F)(F)F)c(F)c2)ccn1` [Example 100, (1R,2R,3S,4R,5R)-5-fluoro-N-(3-fluoro-4-(trifluoromethoxy)phenyl)-3-(2-methylpyridin-4-yl)-7-oxabicyclo[2.2.1]heptane-2-carboxamide]: where the note is “Homo sapiens”, the EC50 came out at 18 µM and the Emax came to 310%.
On the same counts, the results for `Cc1ncc([C@H]2[C@H]3O[C@H](C[C@@H]3O)[C@H]2C(=O)Nc2ccc(Cl)c(Cl)c2)cn1` [Example 56, (1R,2S,3S,4R,5S)—N-(3,4-dichlorophenyl)-5-hydroxy-3-(2-methylpyrimidin-5-yl)-7-oxabicyclo[2.2.1]heptane-2-carboxamide] are above 50 µM and 0%.
`COc1ccc(NC(=O)[C@H]2[C@@H]3O[C@@H]([C@H]4C[C@H]43)[C@@H]2c2ccncc2)cn1` [Example 125, (1S,2S,4R,5R,6R,7S)—N-(6-methoxypyridin-3-yl)-7-(pyridin-4-yl)-8-oxatricyclo[3.2.1.0^2,4]octane-6-carboxamide]: where the note is “Homo sapiens”, the EC50 came out at 17 µM and the Emax stood at 162%.
For `Nc1ncc([C@H]2[C@H]3O[C@H](C[C@@H]3F)[C@H]2C(=O)Nc2ccc(Cl)c(Cl)c2)cn1` [Example 20, (1R,2S,3S,4R,5S)-3-(2-aminopyrimidin-5-yl)-N-(3,4-dichlorophenyl)-5-fluoro-7-oxabicyclo[2.2.1]heptane-2-carboxamide], for the setting “Homo sapiens”, the half-maximal effective concentration (EC50) is above 50 µM and the Emax came to 5%.
As to `O=C(Nc1cccc(C(F)(F)F)c1)[C@@H]1[C@@H]2O[C@@H]([C@H]3C[C@H]32)[C@@H]1c1ccncc1` [Example 38, (1S,2S,4R,5R,6S,7S)-7-(pyridin-4-yl)-N-(3-(trifluoromethyl)phenyl)-8-oxatricyclo[3.2.1.0^2,4]octane-6-carboxamide], under “Homo sapiens”, the concentration for a half-maximal effect (EC50) turned out to be 9.9 µM and the Emax amounted to 36%.
On the same counts, the results for `Cc1cc([C@H]2[C@H](C(=O)Nc3ccc(Cl)c(Cl)c3)[C@H]3O[C@@H]2C[C@H]3F)ccn1` (single isomer, unassigned) [Example 95] are 11 µM and 113%.
Take `Cc1cc([C@H]2[C@H]3O[C@H](C[C@H]3F)[C@@H]2C(=O)Nc2ccn(C)n2)ccn1` [Example 101, (1R,2R,3S,4R,5R)-5-fluoro-N-(1-methyl-1H-pyrazol-3-yl)-3-(2-methylpyridin-4-yl)-7-oxabicyclo[2.2.1]heptane-2-carboxamide]: for the setting “Homo sapiens”, the EC50 turned out to be 29 µM and the Emax was 62%.
With `O=C(Nc1ccc(Cl)c(Cl)c1)[C@@H]1[C@@H](c2ccnc(F)c2)[C@H]2O[C@@H]1C[C@@H]2F` [Example 111, (1R,2R,3S,4R,5S)—N-(3,4-dichlorophenyl)-5-fluoro-3-(2-fluoropyridin-4-yl)-7-oxabicyclo[2.2.1]heptane-2-carboxamide], where the note is “Homo sapiens”, the EC50 turned out to be 28 µM and the Emax is 87%.
Turning to `O=C(Nc1ccc(Cl)c(Cl)c1)[C@H]1[C@H]2O[C@H]([C@@H]3C[C@@H]32)[C@H]1c1cncnc1` (single isomer, unassigned) [Example 28], for the setting “Homo sapiens”, the EC50 worked out at 23 µM and the Emax came out at 167%.
In the case of `O=C(Nc1cnc(Cl)c(Cl)c1)[C@@H]1[C@@H](c2ccnc(F)c2F)[C@H]2O[C@@H]1C[C@@H]2O` [Example 91, (1R,2R,3S,4R,5S)—N-(5,6-dichloropyridin-3-yl)-3-(2,3-difluoropyridin-4-yl)-5-hydroxy-7-oxabicyclo[2.2.1]heptane-2-carboxamide], where the note is “Homo sapiens”, the EC50 was 4.4 µM and the Emax was 66%.
As for `Cc1ccc([C@H]2[C@H]3O[C@H](C[C@@H]3F)[C@H]2C(=O)Nc2ccc(Cl)c(Cl)c2)cn1` [Example 21, (1R,2S,3S,4R,5S)-N-(3,4-dichlorophenyl)-5-fluoro-3-(6-methylpyridin-3-yl)-7-oxabicyclo[2.2.1]heptane-2-carboxamide], where the note is “Homo sapiens”, the EC50 was 27 µM and the Emax amounted to 159%.
Turning to `Cc1cc([C@H]2[C@H]3O[C@H](C[C@@H]3O)[C@@H]2C(=O)Nc2ccc(-c3ccccc3F)c(Cl)c2)ccn1` [Example 78, (1R,2R,3S,4R,5S)—N-(2-chloro-2′-fluoro-[1,1′-biphenyl]-4-yl)-5-hydroxy-3-(2-methylpyridin-4-yl)-7-oxabicyclo[2.2.1]heptane-2-carboxamide], under “Homo sapiens”, the 50% effective concentration (EC50) was above 50 µM and the Emax was determined as 70%.
On the same counts, the results for `Cc1cc([C@H]2[C@H]3O[C@H]([C@H](O)[C@@H]3O)[C@@H]2C(=O)Nc2cccc(C(F)(F)F)c2)ccn1` [Example 158, (1S,2R,3S,4R,5S,6R)-5,6-dihydroxy-3-(2-methylpyridin-4-yl)-N-(3-(trifluoromethyl)phenyl)-7-oxabicyclo[2.2.1]heptane-2-carboxamide] are above 50 µM and 31%.
On to “(1S,2S,4R,5R,6S,7S)-N-(3,4-dichlorophenyl)-7-(2-methylpyridin-4-yl)-8-oxatricyclo[3.2.1.0^2,4]octane-6-carboxamide [Example 23]”, for which the “(A) % Efficacy” value came to 54% and the 50% effective concentration (EC50) was above 50 µM.
`CO[C@H]1C[C@H]2O[C@@H]1[C@H](c1ccnc(C)c1)[C@@H]2C(=O)Nc1ccc(Cl)c(Cl)c1` [Example 63, (1R,2S,3S,4R,5S)—N-(3,4-dichlorophenyl)-5-methoxy-3-(2-methylpyridin-4-yl)-7-oxabicyclo[2.2.1]heptane-2-carboxamide]: for the setting “Homo sapiens”, the EC50 is above 50 µM and the Emax worked out at 9%.
Consider `Cc1cc([C@H]2[C@H]3O[C@H]([C@H](O)[C@@H]3O)[C@@H]2C(=O)Nc2cnc(C)c(C(F)(F)F)c2)ccn1` [Example 163, (1S,2R,3S,4R,5S,6R)-5,6-dihydroxy-N-(6-methyl-5-(trifluoromethyl)pyridin-3-yl)-3-(2-methylpyridin-4-yl)-7-oxabicyclo[2.2.1]heptane-2-carboxamide], for which, where the note is “Homo sapiens”, the 50% effective concentration (EC50) is above 50 µM and the Emax worked out at 23%.
